Data from patent US20240150365A1 (Hotspot Therapeutics, Inc., priority 2022, published 2024).
Where two headings read alike, the source gives them in different places. Blank lines part the entries; values can stand above or below the compound they belong to.

Tests used:
[1] = biological target: T1, MALT1 (Homo sapiens, UniProt Q9UDY8); assay: MALT-1 Fluorogenic Peptide Cleavage Assay (MALT1 inhibition assay); assay type: biochemical; settings: Avi-tagged FL MALT-1, Ac-LRSR-AMC peptide substrate, 30 min pre-incubation, 90 min reaction
T1 construct: Avi-tagged FL MALT-1 (Pharmaron, stored at −70° C.); Avi tag
T1 sequence (Q9UDY8 1-824): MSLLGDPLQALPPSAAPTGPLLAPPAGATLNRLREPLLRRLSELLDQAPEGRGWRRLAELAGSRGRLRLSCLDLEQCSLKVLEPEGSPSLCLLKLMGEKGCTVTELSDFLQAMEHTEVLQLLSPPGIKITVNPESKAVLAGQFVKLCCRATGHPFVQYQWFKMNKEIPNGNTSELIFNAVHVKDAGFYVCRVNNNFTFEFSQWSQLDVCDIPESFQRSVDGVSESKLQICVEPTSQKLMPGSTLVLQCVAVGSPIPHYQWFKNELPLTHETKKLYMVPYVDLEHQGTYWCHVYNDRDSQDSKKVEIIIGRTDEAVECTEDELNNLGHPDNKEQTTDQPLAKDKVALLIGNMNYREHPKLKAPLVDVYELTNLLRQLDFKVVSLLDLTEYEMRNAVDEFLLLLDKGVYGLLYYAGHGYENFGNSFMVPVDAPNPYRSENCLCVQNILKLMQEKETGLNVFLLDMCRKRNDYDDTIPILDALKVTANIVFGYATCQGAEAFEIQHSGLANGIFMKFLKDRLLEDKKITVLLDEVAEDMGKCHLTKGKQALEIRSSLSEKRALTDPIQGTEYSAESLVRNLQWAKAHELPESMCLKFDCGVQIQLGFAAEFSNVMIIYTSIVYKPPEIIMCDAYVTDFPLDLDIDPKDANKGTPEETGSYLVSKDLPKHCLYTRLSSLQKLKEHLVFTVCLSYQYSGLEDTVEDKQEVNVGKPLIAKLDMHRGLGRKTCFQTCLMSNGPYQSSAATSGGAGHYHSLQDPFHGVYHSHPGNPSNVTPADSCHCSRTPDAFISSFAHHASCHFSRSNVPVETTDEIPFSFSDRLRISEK
Protocol: Inhibition of MALT1 activity by the presence of small molecules was evaluated using MALT-1 Fluorogenic Peptide Cleavage Assay. The assay utilizes a quenched AMC-labelled peptide that contains the MALT-1 recognition sequence and cleavage site (LRSR). MALT-1 mediated cleavage of the peptide relieves the quenching and leads to an increase in fluorescence at excitation (342 nm) and emission (441 nm). The following reagents were obtained commercially and used to prepare standard reagent formulations as further described below: […] The standard reagent formulations used in this assay were prepared and stored as follows. A 1.1 M solution of sodium citrate (161.3 g, 500 mL) was prepared and stored at room temperature. A 10% (w/v) CHAPS solution (2.0 g, 20 mL) was prepared and stored at 4° C. A 500 mM HEPES solution having pH of 6.89 was prepared from 200 mL of a 1 M HEPES solution having a pH of 7.5 using concentrated hydrochloric acid and brought to a final volume of 400 mL with […]® H2O. The substrate, 10 mM Ac-LRSR-AMC Peptide, was prepared (10 mg, 1.370 mL DMSO) and stored at -20° C. Compounds were plated to provide a 2% DMSO final concentration using a ProxiPlate-384 Plus F Black 384-shallow well microplate. The assay-ready plates were equilibrated to room temperature. […] DMSO was added only when compound plates had not been DMSO-backfilled to 2%. MALT-1 was thawed and kept on ice. Peptide substrate was thawed on the bench under ambient conditions. A MALT-1 enzyme working stock was prepared from Avi-tagged FL MALT-1 (40 nM in a prepared reagent volume of 16.5 μL) and the reaction buffer (13.0 mL). MALT1 working stock (5 μL) was added to each well of the microplate. MALT-1 was pre-incubated with compounds for 30 minutes at room temperature. […] The plates were covered and incubated on the bench at room temperature for 90 minutes. Fluorescence intensity was determined using a CLARIOstar microplate reader (BMG LABTECH) using the optimised AMC mode. Before taking readings, a 70% gain was applied on the neutral control well. Compound data were normalised to % Inhibition and used to plot sigmoidal concentration response curves to yield various parameters including IC50. […] Compounds in which an IC50 was not measured are designated as “N/A”.

[2] = system: NF-kB; assay: NF-kB reporter assay in Jurkat cells stimulated with aCD3/aCD28/PMA; assay type: cell-based; settings: Homo sapiens, Jurkat, read-out: NF-kB Reporter Assay IC50
Protocol: Jurkat cells were maintained in complete RPMI 1640 media supplemented with 10% FBS. Prior to the assay, 120 nL of the serial diluted compound was added in each well of 384-well flat bottom white plate (Corning #3570) by using liquid handler Echo550. Jurkat cells were harvested by centrifugation at 120 g for 10 min and resuspended in fresh RPMI 1640 media without serum. 30 μL of cells (25,000 cells) were seeded in each well of 384-well plate containing compound. After 1 hr incubation at 37° C. in a 5% CO2 incubator, 10 μL of diluted aCD3/aCD28/PMA (final concentration at 5 μg/mL, 5 μg/mL and 0.03 μg/mL, respectively) in RPMI 1640 without serum were added to each well. After incubation at 37° C. in 5% CO2 for 4 hr, 30 μL of One-Glo reagent (Promega #E6120) was added into each well. The plate was left at room temperature for 5 min and the signal was measured on EnVision (PerkinElmer).
Compounds in which an IC50 was not measured are designated as “N/A”.

[3] = Jurkat cells, 1 hr compound incubation, aCD3/aCD28/PMA stimulation 4 hr, One-Glo readout

Compound: COc1ccc2cnn(C)c2c1NS(=O)(=O)c1ccc(-n2ncc(C(F)(F)F)n2)nc1 [Example I-28, N-(6-Methoxy-1-Methyl-1H-Indazol-7-yl)-6-(4-(Trifluoromethyl)-2H-1,2,3-Triazol-2-yl)Pyridine-3-Sulfonamide]
IC50 [1]: 400 to 1000 nM
IC50 [2, 3]: < 400 nM

Compound: CCc1ccc2cn(C)nc2c1NS(=O)(=O)c1ccc(-n2cc(C(F)(F)F)cn2)nc1 [Example I-26, N-(6-Ethyl-2-Methylindazol-7-yl)-6-[4-(Trifluoromethyl)Pyrazol-1-yl]pyridine-3-Sulfonamide]
IC50 [1]: < 400 nM
IC50 [2, 3]: > 2500 nM

Compound: Cn1ccc(-c2ccc(S(=O)(=O)Nc3cccc4cnn(C)c34)cn2)cc1=O [Example I-117, 1′-Methyl-N-(1-Methyl-1H-Indazol-7-yl)-2′-Oxo-1′,2′-Dihydro-[2,4′-Bipyridine]-5-Sulfonamide]
IC50 [1]: > 2500 nM
IC50 [2, 3]: > 2500 nM

Compound: COc1ccc2cnn(C)c2c1NS(=O)(=O)c1ccc(-n2cc(C(F)(F)F)nn2)nc1 [Example I-29, N-(6-Methoxy-1-Methyl-1H-Indazol-7-yl)-6-(4-(Trifluoromethyl)-1H-1,2,3-Triazol-1-yl)Pyridine-3-Sulfonamide]
IC50 [1]: < 400 nM
IC50 [2, 3]: < 400 nM

Compound: CN(C)c1ncccc1-c1ccc(S(=O)(=O)Nc2cccc3cnn(C)c23)cn1 [Example I-221, 2′-(Dimethylamino)-N-(1-Methyl-1H-Indazol-7-yl)-[2,3′-Bipyridine]-5-Sulfonamide]
IC50 [1]: > 2500 nM
IC50 [2]: 1000 to 2500 nM

Compound: COc1ccc2cnn(C)c2c1NS(=O)(=O)c1ccc(-c2cc(C(F)(F)F)n[nH]2)nc1 [Example I-22, N-(6-Methoxy-1-Methylindazol-7-yl)-6-[5-(Trifluoromethyl)-2H-Pyrazol-3-yl]pyridine-3-Sulfonamide]
IC50 [1]: < 400 nM
IC50 [2, 3]: < 400 nM

Compound: COc1ccc2c(F)nn(C)c2c1NS(=O)(=O)c1ccc(-n2cc(C)cn2)nc1 [Example I-249, N-(3-fluoro-6-methoxy-1-methyl-1H-indazol-7-yl)-6-(4-methyl-1H-pyrazol-1-yl)pyridine-3-sulfonamide]
IC50 [1]: < 400 nM
IC50 [2]: 400 to 1000 nM

Compound: CCc1ccc2cnn(C)c2c1NS(=O)(=O)c1ccc(-n2cc(C(F)(F)F)c(C(=O)N3CC(O)C3)n2)nc1 [Example I-5]
IC50 [1]: < 400 nM

Compound: CCc1ccc2cnn(C)c2c1NS(=O)(=O)c1ccc(-n2cc(C(F)(F)F)c(C(=O)N(C)C)n2)nc1 [Example I-4]
IC50 [1]: 400 to 1000 nM

Compound: CCc1ccc2cnn(C)c2c1NS(=O)(=O)c1ccc(-c2ccnc(C(F)(F)F)c2)nc1 [Example I-46, N-(6-Ethyl-1-Methyl-1H-Indazol-7-yl)-2′-(Trifluoromethyl)-[2,4′-Bipyridine]-5-Sulfonamide]
IC50 [1]: < 400 nM

Compound: CCc1ccc2cnn(C)c2c1NS(=O)(=O)c1ccc(-c2ccc(C(=O)OC)c(Cl)c2)nc1 [Example I-45, Methyl 2-Chloro-4-(5-(N-(6-Ethyl-1-Methyl-1H-Indazol-7-yl)Sulfamoyl)Pyridin-2-yl)Benzoate]
IC50 [1]: < 400 nM

Compound: CCc1ccc2cnn(C)c2c1NS(=O)(=O)c1ccc(-c2ccncc2)nc1 [Example I-47, N-(6-Ethyl-1-Methyl-1H-Indazol-7-yl)-[2,4′-Bipyridine]-5-Sulfonamide]
IC50 [1]: 1000 to 2500 nM

The next lines start with the values.

IC50 [1]: > 2500 nM
IC50 [2, 3]: > 2500 nM
Compound: COc1ccc2cnn(C)c2c1NS(=O)(=O)c1ccc(-c2nc(C)n(C)n2)nc1 [Example I-176, 6-(1,5-Dimethyl-1,2,4-Triazol-3-yl)-N-(6-Methoxy-1-Methylindazol-7-yl)Pyridine-3-Sulfonamide]

IC50 [1]: > 2500 nM
IC50 [2, 3]: < 400 nM
Compound: CCOC(=O)c1cnn(-c2ccc(S(=O)(=O)Nc3cccc4cnn(C)c34)cn2)c1C [Example I-246, ethyl 5-methyl-1-(5-(N-(1-methyl-1H-indazol-7-yl)sulfamoyl)pyridin-2-yl)-1H-pyrazole-4-carboxylate]

IC50 [1]: > 2500 nM
IC50 [2, 3]: < 400 nM
Compound: COc1ccc(Cc2ccc3c(c2N)c(=O)n(S(=O)(=O)c2ccc(-n4cc(C(F)(F)F)cn4)nc2)n3C)cc1 [Example I-203]

IC50 [1]: > 2500 nM
IC50 [2, 3]: < 400 nM
Compound: Cn1ncc2cccc(NS(=O)(=O)c3ccc(-c4ccn(C(F)F)n4)nc3)c21 [Example I-138, 6-(1-(Difluoromethyl)-1H-Pyrazol-3-yl)-N-(1-Methyl-1H-Indazol-7-yl)Pyridine-3-Sulfonamide]

IC50 [1]: > 2500 nM
IC50 [2, 3]: 400 to 1000 nM
Compound: COc1ncc2cnn(C)c2c1NS(=O)(=O)c1ccc(-c2cnn3c2CCC3)nc1 [Example I-289]

IC50 [1]: 1000 to 2500 nM
IC50 [2, 3]: < 400 nM
Compound: COc1ccc2cnn(C)c2c1NS(=O)(=O)c1ccc(-c2cnn3c2COCC3)nc1 [Example I-308]

IC50 [1]: < 400 nM
IC50 [2, 3]: < 400 nM
Compound: COc1ncc2cnn(C)c2c1NS(=O)(=O)c1ccc(-n2cc(C)cn2)nc1 [Example I-184, N-{6-methoxy-1-methylpyrazolo[4,3-c]pyridin-7-yl}-6-(4-methylpyrazol-1-yl)pyridine-3-sulfonamide]

IC50 [1]: > 2500 nM
IC50 [2, 3]: 400 to 1000 nM
Compound: Cn1ncc2cccc(NS(=O)(=O)c3ccc(-c4cccnc4Cl)nc3)c21 [Example I-220, 2′-Chloro-N-(1-Methyl-1H-Indazol-7-yl)-[2,3′-Bipyridine]-5-Sulfonamide]

IC50 [1]: > 2500 nM
IC50 [2, 3]: < 400 nM
Compound: Cc1cncc(-c2ccc(S(=O)(=O)Nc3cccc4cnn(C)c34)cn2)c1 [Example I-131, 5′-methyl-N-(1-methylindazol-7-yl)-[2,3′-bipyridine]-5-sulfonamide]

IC50 [1]: 400 to 1000 nM
IC50 [2, 3]: 1000 to 2500 nM
Compound: COc1ncc2nnn(C)c2c1NS(=O)(=O)c1ccc(-n2cc(C(F)(F)F)cn2)nc1 [Example I-180, N-{6-methoxy-1-methyl-[1,2,3]triazolo[4,5-c]pyridin-7-yl}-6-[4-(trifluoromethyl)pyrazol-1-yl]pyridine-3-sulfonamide]

IC50 [1]: < 400 nM
IC50 [2, 3]: < 400 nM
Compound: COc1ccc2cnn(C)c2c1NS(=O)(=O)c1ccc(-n2nc(C)c(Cl)c2C)nc1 [Example I-141, 6-(4-Chloro-3,5-Dimethyl-1H-Pyrazol-1-yl)-N-(6-Methoxy-1-Methyl-1H-Indazol-7-yl)Pyridine-3-Sulfonamide]

IC50 [1]: 1000 to 2500 nM
IC50 [2, 3]: 400 to 1000 nM
Compound: COc1ccc2nnn(C)c2c1NS(=O)(=O)c1ccc(-n2ccc(C(F)(F)F)n2)nc1 [Example I-128, N-(6-methoxy-1-methyl-1H-benzo[d][1,2,3]triazol-7-yl)-6-(3-(trifluoromethyl)-1H-pyrazol-1-yl)pyridine-3-sulfonamide]
